Test results: patent US20190328721A1, “METHOD OF ACTIVATING DENDRITIC CELLS” (KOREA INSTITUTE OF SCIENCE AND TECHNOLOGY, priority 2018, published 2019)

Experiments:
[1] = tested on: B16F10 cancer cells; assay: B16F10 tumor model, ripasudil, PDT and anti-PD-L1 antibodies; set-up: species or system C57BL/6 wild-type mice; conditions: mouse, in vivo
[2] = tested on: bone marrow-derived macrophages (BMDMs); assay: Phagocytosis of cancer cells by bone marrow-derived macrophages in vitro; assay type: cell-based, mice; conditions: 30 μM, 1 hour; B16F10; co-cultivated 30 min
Experimental: Specifically, the present inventors prepared bone marrow-derived macrophages (BMDMs) differentiated from excised bone marrow of mice using M-CSF and bone marrow-derived dendritic cells (BMDCs) differentiated from excised bone marrow using Flt3L. The degree of differentiation was confirmed by flow cytometry analysis using antibodies specifically binding to F4/80 (BMDM marker) and CD11c (BMDC marker), respectively (FIGS. 2A and 2B).
The prepared BMDMs and BMDCs were stained with 1 μM CellTracker Deep Red (Thermo Fisher Scientific, USA). 30 μM of Y27632 (Abcam, USA) or 30 μM of fasudil (Selleck Chemicals, USA) was added to each of 15×10^4 cells/ml of the stained macrophages and dendritic cells and incubated at 37° C. for 1 hour. As a negative control, macrophages or dendritic cells that were not incubated with Y27632 and fasudil were used.
Bone marrow-derived macrophages or dendritic cells prepared in RPMI medium and cancer cell lines stained with 1 μM CellTracker CMFDA (Thermo Fisher Scientific, USA) were co-cultured at about 37° C. for about 2 hours. CT26.CL25, a colon cancer cell line, and B16F10-OVA, a melanoma cell line, were used as the cancer cells.
Thereafter, the percentage of cancer cells was measured by flow cytometry, and the phagocytosis ratio of macrophages and dendritic cells against cancer cells was calculated. The results are shown in FIGS. 2C to 2F (left: cancer cell line CT26.CL25, right: cancer cell line B16F10-OVA).
In order to more accurately analyze the phagocytosis of macrophages and dendritic cells against cancer cells according to the treatment of the ROCK inhibitor, the present inventors analyzed phagocytosis of the BMDMs and BMDCs against CT26.CL25 colon cancer cells using the pHrodo-SE dye, which changes in fluorescence depending on pH. When […], the pH of the cancer cells decreased and became red. When treated with Y27632 as described above for the above-mentioned phagocytosis response, the phagocytic activities of both the BMDMs and BMDCs against cancer cells were improved.
The present inventors performed an experiment to confirm how long the phagocytosis of BMDMs and BMDCs against cancer cells due to the ROCK inhibitor is maintained. Specifically, BMDMs and BMDCs were pretreated with Y27632 for 1 hour, then Y27632 was removed, and immediately after 30 minutes, 1 hour, 2 hours, or 4 hours, the phagocytosis against CT26.CL25 and B16F10-Ova was measured using a flow cytometer. The other experimental conditions were the same as in Example 1-1.
In order to confirm whether the ROCK inhibitor increases phagocytosis against cancer cells by acting on phagocytic cells (BMDMs or BMDCs) themselves, Y27632 was used to pretreat the phagocytic cells or cancer cells for 1 hour, and the phagocytic activity was analyzed using the same procedure described in Example 1-1.
The present inventors identified through the above-mentioned results that Y27632 promotes phagocytic cells against cancer cells by inhibiting ROCK in the phagocytic cells. In order to elucidate a more detailed mechanism related to the increase of phagocytic activity by ROCK inhibitors, the present inventors analyzed phagocytosis of the phagocytic cells against cancer cells using blebbistatin (Sigma-Aldrich, USA), which can inhibit the movement of myosin light chain, which exist downstream of ROCK signaling pathway, according to the method described in Example 1-1.
Bone marrow-derived macrophages (BMDMs) treated with 30 μM of fasudil were co-cultured with B16F10-Ova malignant melanoma cells for 1 hour and the phagocytic activity of the BMDMs against apoptotic cancer cells was analyzed by flow cytometry analysis. In order to induce immunogenic apoptosis, 2.5 μM mitoxantrone (Sigma-Aldrich, USA) was administered with B16F10-Ova cells stained with CellTracker Deep Red (Thermo Fisher Scientific, USA) for 4 hours. […]

[3] = tested on: bone marrow-derived dendritic cells (BMDCs); assay: Phagocytosis of cancer cells by bone marrow-derived dendritic cells in vitro; assay type: cell-based, mice; conditions: 30 μM, 1 hour; B16F10; co-cultivated 30 min

## C[C@H]1CNCCCN1S(=O)(=O)c1cccc2cncc(F)c12 [ripasudil]
[1]
  CD40 and CD86 on dendritic cells of tumor draining lymph nodes: No increased expression
[2]
  phagocytic activity of BMDMs against PDT-treated cancer cells: significantly increased
[3]
  phagocytic activity of BMDCs against PDT-treated cancer cells: significantly increased
